{"source": "patent US20070021509A1", "about": "“Phosphate transport inhibitors” (priority 2001, published 2007)", "key": {"[1]": {"tested_on": "glucose transport (rabbit intestinal BBMV)", "assay": "In vitro BBMV assay, glucose transport inhibiting activity", "assay_type": "biochemical", "conditions": "Table 14", "procedure": "In the remaining wells, used for compound containing reactions, are placed MAX Control Buffer. The Hot Stock Plate was stored at room temperature. To each well of an appropriate 96-well filter plate was added approximately 200 μL Stop Buffer to pre-wet the filters for at least 15 minutes prior to assay. The “Compound Plate” was set-up by loading appropriate wells of a 96-well, polypropylene, V-bottom plate with compound solutions. This could be for testing inhibition at a single “screening” concentration, or to measure the potency of compounds by dose-response analysis at the appropriate concentrations. A “BBMV Plate” was set up by loading a 96-well, polypropylene, V-bottom plate with BBMVs at 0.5-2.0 mg/mL (prepared as described above). The BBMV Plate was kept on ice until just prior to the assay. The reaction was initiated by aspiration of the hot uptake buffers (19 uL), from the Hot Stock Plate, and the compound solutions (2 uL), from the Compound Plate, dispensing into an empty 96-well V-bottom plate (Assay Plate), then immediately aspirating the BBMVs (19 μL), from the BBMV Plate and dispensing into the same Assay Plate. The addition of the BBMVs to the assay plate marked the reaction start time. After 15 minutes, the reaction was quenched by addition of 200 μL of STOP buffer from a reservoir. The Stop Buffer was aspirated by vacuum from the wells, through the filters, of the pre-soaked filter plate using a filter plate manifold. The quenched reactions were aspirated and transferred to the filter plate under vacuum. The filters were washed 2 times with 200 μL STOP buffer under vacuum. The filter plate was removed, dried, and the bottom of the filter plate was sealed. To each well of the filter plate was added 50 μL of scintillant (Microscint-20). A top seal was then applied to the filter plate. The plate was incubated for approximately 20 minutes before reading for ^33P CPM on a scintillation counter (i.e., TopCount-Packard Instruments). Percent inhibition was calculated by comparing the CPM values from compound containing wells to the MAX and MIN controls on the same plate using the following formula. 1−((CPM−MIN)/(MAX−MIN)) IC50 values were calculated from non-linear regression analysis within an appropriate software package (i.e., Prism GraphPad).\nThe phosphate transport inhibitors indicated in Table 14 were tested in both an in vitro and an ex vivo assay to determine their activity. The in vitro assay is identical to the assay described in Example 66, with the exception that the glucose transport inhibiting activity of the compounds was also measured. Results are reported as the IC50 value for the various types of inhibition. A preferred compound will have high phosphate transport inhibiting activity, but little or no glucose transport inhibiting activity."}, "[2]": {"tested_on": "glucose uptake into isolated rabbit intestinal rings", "assay": "Ex vivo glucose uptake into isolated rabbit intestinal rings", "assay_type": "cell-based", "set-up": "concentration or dose not given beside the values", "conditions": "Table 14", "procedure": "For the ex vivo assay, ^33P uptake into isolated rabbit intestinal rings was measured using a modification of the method described by Crane and Mandelstam [Robert K. Crane and Paul Mandelstam “The active transport of sugars by various preparations of hamster intestine” Biochim. Biophys. Acta 45: 460-476, 1960; the contents of which are incorporated herein by reference]. Male New Zealand rabbits 2-3 kg in weight were aeuthinized by an i.v. injection of Fatal Pluse®. A midline laparotomy was performed and the duodenum from the pyloric junction to the ligament of Trietz isolated and excised. Segments of bowel were everted, cut into 2-4 mm ring-like pieces and placed into a modified Hepes-Buffered Ringer's solution in which Na^+ had been iso-osmotically replaced with N-methyl-D-glucamine. […] […] Tissues were then solublized by digesting them in a 5 ml volume of Solvable® tissue solubilizer overnight at 50° C. and ^33P levels determined by scintillation counting. Sodium-dependent uptake of ^33P was calculated by determining the difference in uptake between rings incubated in the presence and absence of Na^+ in the Hepes-Buffered Ringer's solution. Results are reported as the percentage inhibition of phosphate and glucose uptake, respectively."}, "[3]": {"tested_on": "sodium-dependent phosphate uptake into isolated rabbit intestinal rings", "assay": "Ex vivo 33P uptake into isolated rabbit intestinal rings", "assay_type": "cell-based", "set-up": "concentration or dose not given beside the values", "conditions": "Table 14, 15-minute incubation", "procedure": "For the ex vivo assay, ^33P uptake into isolated rabbit intestinal rings was measured using a modification of the method described by Crane and Mandelstam [Robert K. Crane and Paul Mandelstam “The active transport of sugars by various preparations of hamster intestine” Biochim. Biophys. Acta 45: 460-476, 1960; the contents of which are incorporated herein by reference]. Male New Zealand rabbits 2-3 kg in weight were aeuthinized by an i.v. injection of Fatal Pluse®. A midline laparotomy was performed and the duodenum from the pyloric junction to the ligament of Trietz isolated and excised. Segments of bowel were everted, cut into 2-4 mm ring-like pieces and placed into a modified Hepes-Buffered Ringer's solution in which Na^+ had been iso-osmotically replaced with N-methyl-D-glucamine. To measure phosphate uptake, six rings were incubated in a 50 ml conical tube containing a 10 ml volume of Ringer's solution, with or without Na^+, bubbled with 100% O2 and maintained at 37° C. 0.5 uCi/ml ^33P was then incubated with the rings for a 15-minute period, the tissue harvested, rinsed, blotted dry and weighed. Tissues were then solublized by digesting them in a 5 ml volume of Solvable® tissue solubilizer overnight at 50° C. and ^33P levels determined by scintillation counting. Sodium-dependent uptake of ^33P was calculated by determining the difference in uptake between rings incubated in the presence and absence of Na^+ in the Hepes-Buffered Ringer's solution. Results are reported as the percentage inhibition of phosphate and glucose uptake, respectively."}}, "data": [{"smiles": "COc1ccccc1CNC(=O)c1cc(Br)ccc1NS(=O)(=O)c1ccc(OC(F)(F)F)cc1", "note": "[Example 70, 5-Bromo-N-(2-methoxy-benzyl)-2-(4-trifluoromethoxy-benzenesulfonylamino)-benzamide]", "values": [{"measurement": "IC50", "setting": "[1]", "result": "> 100", "unit": "µM"}, {"measurement": "% Glucose Transport Inhibition", "setting": "[2]", "result": 8, "unit": "%"}, {"measurement": "% Phosphate Transport Inhibition", "setting": "[3]", "result": 48, "unit": "%"}]}, {"smiles": "O=C(NCc1ccc(F)cc1)c1cc(Br)ccc1NS(=O)(=O)c1ccc(OC(F)(F)F)cc1", "note": "[Example 71, 5-Bromo-N-(4-fluoro-benzyl)-2-(4-trifluoromethoxy-benzenesulfonylamino)-benzamide]", "values": [{"measurement": "IC50", "setting": "[1]", "result": "> 100", "unit": "µM"}, {"measurement": "% Glucose Transport Inhibition", "setting": "[2]", "result": 26, "unit": "%"}, {"measurement": "% Phosphate Transport Inhibition", "setting": "[3]", "result": 53, "unit": "%"}]}, {"smiles": "O=C(NCc1ccc(OC(F)(F)F)cc1O)c1cc(Br)ccc1NS(=O)(=O)c1ccc(OC(F)(F)F)cc1", "note": "[Example 75, 5-Bromo-N-(2-hydroxy-4-trifluoromethoxy-benzyl)-2-(4-trifluoromethoxy-benzenesulfonylamino)-benzamide]", "values": [{"measurement": "IC50", "setting": "[1]", "result": 80, "unit": "µM"}, {"measurement": "% Glucose Transport Inhibition", "setting": "[2]", "result": 0, "unit": "%"}, {"measurement": "% Phosphate Transport Inhibition", "setting": "[3]", "result": 56, "unit": "%"}]}, {"smiles": "COc1ccc(F)cc1CNC(=O)c1cc(Br)ccc1NS(=O)(=O)c1ccc(OC(F)(F)F)cc1", "note": "[Example 78, 5-Bromo-N-(5-fluoro-2-methoxy-benzyl)-2-(4-trifluoromethoxy-benzenesulfonylamino)-benzamide]", "values": [{"measurement": "IC50", "setting": "[1]", "result": 100, "unit": "µM"}, {"measurement": "% Glucose Transport Inhibition", "setting": "[2]", "result": 4, "unit": "%"}, {"measurement": "% Phosphate Transport Inhibition", "setting": "[3]", "result": 45, "unit": "%"}]}, {"smiles": "O=C(Nc1cccc(C(F)(F)F)c1)Nc1cccc(C(F)(F)F)c1", "note": "[Example 82, 1,3Bis(3-Trifluoromethylphenyl)urea]", "values": [{"measurement": "IC50", "setting": "[1]", "result": 54, "unit": "µM"}, {"measurement": "% Glucose Transport Inhibition", "setting": "[2]", "result": 26, "unit": "%"}, {"measurement": "% Phosphate Transport Inhibition", "setting": "[3]", "result": 25, "unit": "%"}]}, {"smiles": "O=C(Nc1cc(C(F)(F)F)cc(C(F)(F)F)c1)NC1CCCCC1", "note": "[Example 83, 1-Cyclohexyl-3-(3,5-Bistrifluoromethyl-phenyl)-urea]", "values": [{"measurement": "IC50", "setting": "[1]", "result": 82, "unit": "µM"}, {"measurement": "% Glucose Transport Inhibition", "setting": "[2]", "result": 0, "unit": "%"}, {"measurement": "% Phosphate Transport Inhibition", "setting": "[3]", "result": 76, "unit": "%"}]}, {"smiles": "Cn1nc(C(C)(C)C)cc1C(=O)Nc1ccc(C(F)(F)F)cc1", "note": "[Example 84, 5-tert-Butyl-2-methyl-2H-pyrazole-3-carboxylic acid (4-trifluoromethyl-phenyl)-amide]", "values": [{"measurement": "IC50", "setting": "[1]", "result": 99, "unit": "µM"}, {"measurement": "% Glucose Transport Inhibition", "setting": "[2]", "result": 21, "unit": "%"}, {"measurement": "% Phosphate Transport Inhibition", "setting": "[3]", "result": 41, "unit": "%"}]}, {"smiles": "O=C(Nc1cccc(C(F)(F)F)c1)Nc1cc(Cl)ccc1Cl", "note": "[Example 85, 1-(2,5-Dichloro-phenyl)-3-(3-trifluoromethyl-phenyl)-urea]", "values": [{"measurement": "IC50", "setting": "[1]", "result": "> 100", "unit": "µM"}, {"measurement": "% Glucose Transport Inhibition", "setting": "[2]", "result": 0, "unit": "%"}, {"measurement": "% Phosphate Transport Inhibition", "setting": "[3]", "result": 58, "unit": "%"}]}, {"smiles": "O=C(Nc1cccc(C(F)(F)F)c1)Nc1ccc(F)c([N+](=O)[O-])c1", "note": "[Example 86, 1-(4-Fluoro-3-nitro-phenyl)-3-(3-trifluoromethyl-phenyl)-urea]", "values": [{"measurement": "IC50", "setting": "[1]", "result": 34, "unit": "µM"}, {"measurement": "% Glucose Transport Inhibition", "setting": "[2]", "result": 4, "unit": "%"}, {"measurement": "% Phosphate Transport Inhibition", "setting": "[3]", "result": 30, "unit": "%"}]}, {"smiles": "Cl.N=C(Nc1ccc(Br)c(C(F)(F)F)c1)Nc1ccc(Br)c(C(F)(F)F)c1", "note": "[Example 87, N,N′-Bis-(4-bromo-3-trifluoromethyl-phenyl)-guanidine Hydrochloride]", "values": [{"measurement": "IC50", "setting": "[1]", "result": 94, "unit": "µM"}, {"measurement": "% Glucose Transport Inhibition", "setting": "[2]", "result": 3, "unit": "%"}, {"measurement": "% Phosphate Transport Inhibition", "setting": "[3]", "result": 71, "unit": "%"}]}, {"smiles": "Cl.N=C(Nc1cc(C(F)(F)F)cc(C(F)(F)F)c1)Nc1cc(C(F)(F)F)cc(C(F)(F)F)c1", "note": "[Example 88, N,N′-Bis-(3,5-bis-trifluoromethyl-phenyl)-guanidine Hydrochloride]", "values": [{"measurement": "IC50", "setting": "[1]", "result": 63, "unit": "µM"}, {"measurement": "% Glucose Transport Inhibition", "setting": "[2]", "result": 0, "unit": "%"}, {"measurement": "% Phosphate Transport Inhibition", "setting": "[3]", "result": 60, "unit": "%"}]}, {"smiles": "Cl.N=C(Nc1ccc(Cl)c(C(F)(F)F)c1)Nc1ccc(Cl)c(C(F)(F)F)c1", "note": "[Example 89, N,N′-Bis-(4-chloro-3-trifluoromethyl-phenyl)-guanidine Hydrochloride]", "values": [{"measurement": "IC50", "setting": "[1]", "result": 88, "unit": "µM"}, {"measurement": "% Glucose Transport Inhibition", "setting": "[2]", "result": 0, "unit": "%"}, {"measurement": "% Phosphate Transport Inhibition", "setting": "[3]", "result": 44, "unit": "%"}]}, {"smiles": "Cl.N=C(Nc1ccc(C(F)(F)F)c(C(F)(F)F)c1)Nc1ccc(C(F)(F)F)c(C(F)(F)F)c1", "note": "[Example 90, N,N′-Bis-(3,4-bis-trifluoromethyl-phenyl)-guanidine Hydrochloride]", "values": [{"measurement": "IC50", "setting": "[1]", "result": "> 100", "unit": "µM"}, {"measurement": "% Glucose Transport Inhibition", "setting": "[2]", "result": 0, "unit": "%"}, {"measurement": "% Phosphate Transport Inhibition", "setting": "[3]", "result": 93, "unit": "%"}]}]}
